Measured values reported in patent US10689343B2, “Inhibitors of tryptophan 2,3-dioxygenase” (NETHERLANDS TRANSLATIONAL RESEARCH CENTER B.V., priority 2016, dated 2020).
Several values for one entry are separate records, joined by “and”; a condition that tells them apart may be missing. Identical values can stand only once. Like-named read-outs stand apart in the source and are kept apart here.

Columns and labels:
[1] = target: T1, TDO in SW48 colorectal carcinoma cells (Homo sapiens, UniProt P48775); assay: Cell-based assay for TDO in SW48 colorectal carcinoma cells (NFK GreenScreen); details: 18 hours with L-tryptophan, read-out: IC50 on TDO in cells
T1 construct: Endogenous expression of TDO has been determined in a variety of cancer cell lines; host or cells: SW48 colorectal carcinoma cells

Recombinant TDO = target: T2, Recombinant TDO (Homo sapiens, UniProt P48775); assay: Biochemical assay for TDO (NFK GreenScreen); details: 50 nM TDO, 200 μM L-tryptophan
T2 construct: Recombinant TDO (Seegers, N., et al.) and all other assay components were diluted in TDO reaction buffer
Procedure, shortened: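 Recombinant human TDO (50 nM) preincubated with compound 60 min at room temperature in 100 mM NaH2PO4 pH 7.0, 0.02% Tween-20, with ascorbic acid. Reaction then run 15 min with 200 μM L-tryptophan (final), 0.3% DMSO. NFK product detected by NFK Green fluorescence after 3 h at 37° C; IC50 derived.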

CYP2D6 [2] = target: T3, CYP2D6 (Homo sapiens, UniProt P10635); assay: P450-Glo CYP2D6 Luc-IP assay
CYP3A4 [3] = target: T4, CYP3A4 (Homo sapiens, UniProt P08684); assay: P450-Glo CYP3A4 luciferin isopropylacetal (Luc-IP) assay
Excerpt: (§1) To determine the inhibitory potency of compounds on CYP3A4 enzyme, the P450-Glo CYP3A4 luciferin isopropylacetal (Luc-IP) assay was used (Promega, Madison, Wis., USA, Cat. No. V9920). The assay makes use of a luminogenic isopropylacetal (IPA) substrate that is a derivative from beetle luciferin, a substrate of luciferase enzymes. The IPA substrate is converted by CYP3A4 to luciferin, which in turn reacts with luciferase to produce an amount of light that is directly proportional to the activity of CYP3A4. Compounds were serially diluted in DMSO and finally in 400 mM K2HPO4, pH 7.4. 5 μl of compound solution and 5 μl of CYP3A4/substrate solution were combined in the well of a white 384-well Optiplate (Perkin Elmer). The DMSO concentration in the assay was 0.1%. After incubation for 10 minutes at room temperature in the dark, 10 μl of NADPH regeneration system was added and incubation was continued for 10 min. Then, 20 μl of Luciferin Detection Reagent was added to stop the reaction, and incubation was continued for another 20 min. Luminescence was measured on an Envision multimode reader and IC50 values were calculated using XLfit™. […] Instead of in a 96-well plate, the assay was performed in 384-well white Perkin Elmer Optiplate (cat. no. 6007290).

[4] = mice treated with LM10; cited from earlier work
[5] = target: T5, TDO expressed in mouse tumor cells (Mus musculus, UniProt P48776); details: immunocompetent mice; cited from earlier work
T5 construct: host or cells: mouse tumor cells

CYP3A4 [6] = target: T4, CYP3A4
Excerpt: as §1

CYP2D6 [7] = target: T3, CYP2D6

T3 sequence (P10635 whole entry): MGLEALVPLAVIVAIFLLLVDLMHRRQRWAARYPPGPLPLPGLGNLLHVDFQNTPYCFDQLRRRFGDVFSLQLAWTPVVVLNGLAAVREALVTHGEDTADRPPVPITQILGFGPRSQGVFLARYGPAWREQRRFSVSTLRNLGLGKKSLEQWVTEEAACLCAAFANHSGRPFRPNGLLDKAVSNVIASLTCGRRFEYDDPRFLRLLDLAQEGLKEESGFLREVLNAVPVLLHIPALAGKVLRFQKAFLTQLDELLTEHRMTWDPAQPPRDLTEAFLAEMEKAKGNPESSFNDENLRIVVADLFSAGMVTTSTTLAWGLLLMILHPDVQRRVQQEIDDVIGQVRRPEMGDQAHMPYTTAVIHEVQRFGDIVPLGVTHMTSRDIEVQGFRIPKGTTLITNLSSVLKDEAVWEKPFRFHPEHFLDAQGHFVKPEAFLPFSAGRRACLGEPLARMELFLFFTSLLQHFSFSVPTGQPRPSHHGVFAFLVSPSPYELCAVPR
T2 sequence (P48775 whole entry): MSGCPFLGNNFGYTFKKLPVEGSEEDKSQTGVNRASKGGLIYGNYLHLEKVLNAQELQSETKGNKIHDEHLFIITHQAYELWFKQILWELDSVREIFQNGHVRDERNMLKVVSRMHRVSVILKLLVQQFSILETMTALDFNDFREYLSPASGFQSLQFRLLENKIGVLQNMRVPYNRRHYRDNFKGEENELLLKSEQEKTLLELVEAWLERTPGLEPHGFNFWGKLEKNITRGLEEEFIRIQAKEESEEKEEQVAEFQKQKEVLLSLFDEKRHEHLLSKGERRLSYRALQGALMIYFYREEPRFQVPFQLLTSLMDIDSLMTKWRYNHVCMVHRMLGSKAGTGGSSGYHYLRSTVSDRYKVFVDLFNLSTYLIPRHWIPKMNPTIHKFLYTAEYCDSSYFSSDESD
T1 sequence (P48775 whole entry): as above
T4 sequence (P08684 whole entry): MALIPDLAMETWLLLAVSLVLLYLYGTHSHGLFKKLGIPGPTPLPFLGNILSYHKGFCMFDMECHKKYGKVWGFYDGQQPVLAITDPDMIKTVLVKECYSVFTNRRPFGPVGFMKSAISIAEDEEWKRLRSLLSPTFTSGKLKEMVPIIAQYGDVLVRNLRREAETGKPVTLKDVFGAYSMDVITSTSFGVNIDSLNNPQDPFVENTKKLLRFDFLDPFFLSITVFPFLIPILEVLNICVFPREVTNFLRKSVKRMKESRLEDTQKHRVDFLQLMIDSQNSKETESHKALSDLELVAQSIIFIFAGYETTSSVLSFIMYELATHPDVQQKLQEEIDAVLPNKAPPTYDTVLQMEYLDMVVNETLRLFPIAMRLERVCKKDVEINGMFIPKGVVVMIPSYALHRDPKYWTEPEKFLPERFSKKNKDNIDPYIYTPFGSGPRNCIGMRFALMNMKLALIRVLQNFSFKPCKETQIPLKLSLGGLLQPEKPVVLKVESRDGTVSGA
T5 sequence (P48776 whole entry): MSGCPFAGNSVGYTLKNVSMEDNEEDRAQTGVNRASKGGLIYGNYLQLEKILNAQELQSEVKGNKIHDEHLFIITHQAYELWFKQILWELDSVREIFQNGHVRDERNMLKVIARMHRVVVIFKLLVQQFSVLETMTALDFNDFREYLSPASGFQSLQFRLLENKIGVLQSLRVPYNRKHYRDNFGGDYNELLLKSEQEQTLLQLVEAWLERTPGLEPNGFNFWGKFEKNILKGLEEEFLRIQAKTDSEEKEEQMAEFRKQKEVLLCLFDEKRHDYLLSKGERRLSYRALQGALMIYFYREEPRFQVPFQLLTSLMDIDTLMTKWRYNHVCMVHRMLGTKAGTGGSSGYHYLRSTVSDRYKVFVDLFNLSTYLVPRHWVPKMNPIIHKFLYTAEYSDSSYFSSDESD

Compound	IC50 [1]	IC50 (Recombinant TDO) [nM]	IC50 (CYP2D6 [2]) [nM]	IC50 (CYP3A4 [3]) [nM]	Signs of toxicity in the liver or any other organs [4]	Effect on TDO-mediated prevention of tumor cell rejection [5]	IC50 (CYP3A4 [6]) [nM]	IC50 (CYP2D6 [7]) [nM]
N[C@H]1CC[C@@H](C(=O)Nc2ccc(-c3c[nH]c4cc(F)ccc34)cc2)C1 [Example 106, (1R,3S)-3-amino-N-[4-(6-fluoro-1H-indol-3-yl)phenyl]cyclopentanecarboxamide]	≤ 500 nM and 200 to 500 nM	< 1000	> 10000	5000 to 10000				
CN1CCN(CC(=O)Nc2ccc(-c3c[nH]c4cc(F)ccc34)cc2)CC1 [Example 109, N-[4-(6-fluoro-1H-indol-3-yl)phenyl]-2-(4-methylpiperazin-1-yl)acetamide]	≤ 500 nM and 200 to 500 nM	< 1000	> 10000	> 10000				
C[C@H]1CNCC[C@H]1C(=O)Nc1ccc(-c2c[nH]c3cc(F)ccc23)cc1 [Example 110, (3R,4R)—N-[4-(6-fluoro-1H-indol-3-yl)phenyl]-3-methyl-piperidine-4-carboxamide]	≤ 500 nM and 200 to 500 nM	< 1000	> 10000	5000 to 10000				
COc1cc(-c2c[nH]c3cc(F)ccc23)ccc1C(=O)N[C@H](C)CO [Example 111, 4-(6-Fluoro-1H-indol-3-yl)-N-[(1R)-2-hydroxy-1-methyl-ethyl]-2-methoxy-benzamide]	≤ 500 nM and 200 to 500 nM	1000 to 5000	> 10000	> 10000				
NC(=O)CNC(=O)c1ccc(-c2c[nH]c3cc(F)ccc23)cc1 [Example 112, N-(2-amino-2-oxo-ethyl)-4-(6-fluoro-1H-indol-3-yl)benzamide]	≤ 500 nM and 200 to 500 nM	< 1000	> 10000	> 10000				
CC(=O)NCCNC(=O)c1ccc(-c2c[nH]c3cc(F)ccc23)cc1 [Example 113, N-(2-acetamidoethyl)-4-(6-fluoro-1H-indol-3-yl)benzamide]	≤ 500 nM and 200 to 500 nM	1000 to 5000	> 10000	> 10000				
O=C(NCCN1C[C@H](O)[C@@H](O)C1)c1ccc(-c2c[nH]c3cc(F)ccc23)cc1Cl [Example 115, 2-Chloro-N-[2-[(3S,4S)-3,4-dihydroxypyrrolidin-1-yl]ethyl]-4-(6-fluoro-1H-indol-3-yl)benzamide]	≤ 500 nM and 200 to 500 nM	< 1000	> 10000	> 10000				
O=C(NCCN1C[C@@H](O)[C@H](O)C1)c1ccc(-c2c[nH]c3cc(F)ccc23)cc1Cl [Example 116, 2-Chloro-N-[2-[(3R,4R)-3,4-dihydroxypyrrolidin-1-yl]ethyl]-4-(6-fluoro-1H-indol-3-yl)benzamide]	≤ 500 nM and 200 to 500 nM	< 1000	> 10000	> 10000				
C[C@H](CO)NC(=O)c1ccc(-c2c[nH]c3cc(F)ccc23)c(F)c1 [Example 117, 3-Fluoro-4-(6-fluoro-1H-indol-3-yl)-N-[(1R)-2-hydroxy-1-methyl-ethyl]benzamide]	≤ 500 nM and 200 to 500 nM	< 1000	5000 to 10000	5000 to 10000				
O=C(NC1CCCNC1)c1ccc(-c2c[nH]c3cc(F)ccc23)cc1 (stereo not shown) [Example 118, 4-(6-Fluoro-1H-indol-3-yl)-N-(3-piperidyl)benzamide]	≤ 200 nM	< 1000	> 10000	> 10000				
CC(=O)N1CCCC(NC(=O)c2ccc(-c3c[nH]c4cc(F)ccc34)cc2)C1 (stereo not shown) [Example 119, N-(1-acetyl-3-piperidyl)-4-(6-fluoro-1H-indol-3-yl)benzamide]	≤ 500 nM and 200 to 500 nM	1000 to 5000	> 10000	5000 to 10000				
COC(=O)C(NC(=O)c1ccc(-c2c[nH]c3cc(F)ccc23)cc1)C1CCNCC1 (stereo not shown) [Example 122, Methyl 2-[[4-(6-fluoro-1H-indol-3-yl)benzoyl]amino]-2-(4-piperidyl)acetate]	≤ 500 nM and 200 to 500 nM	< 1000	> 10000	5000 to 10000				
C[C@@H](CO)NC(=O)c1ccc(-c2c[nH]c3cc(F)ccc23)cc1F [Example 123, 2-Fluoro-4-(6-fluoro-1H-indol-3-yl)-N-[(1S)-2-hydroxy-1-methyl-ethyl]benzamide]	≤ 200 nM	< 1000	> 10000	5000 to 10000				
CN(C)CCCNC(=O)c1ccc(-c2c[nH]c3cc(F)ccc23)cc1F [Example 124, N-[3-(dimethylamino)propyl]-2-fluoro-4-(6-fluoro-1H-indol-3-yl)benzamide]	≤ 200 nM	< 1000	> 10000	5000 to 10000				
O=C(N[C@H]1CCCNC1)c1ccc(-c2c[nH]c3cc(F)ccc23)cc1F [Example 125, 2-Fluoro-4-(6-fluoro-1H-indol-3-yl)-N-[(3S)-3-piperidyl]benzamide]	≤ 200 nM	< 1000	> 10000	5000 to 10000				
Cc1cc(C(=O)NCCCN(C)C)ccc1-c1c[nH]c2cc(F)ccc12 [Example 127, N-[3-(dimethylamino)propyl]-4-(6-fluoro-1H-indol-3-yl)-3-methyl-benzamide]	≤ 500 nM and 200 to 500 nM	< 1000	> 10000	> 10000				
C[C@H](CO)NC(=O)c1ccc(-c2c[nH]c3cc(F)ccc23)cc1F [Example 129, 2-Fluoro-4-(6-fluoro-1H-indol-3-yl)-N-[(1R)-2-hydroxy-1-methyl-ethyl]benzamide]	≤ 500 nM and 200 to 500 nM	< 1000	> 10000	> 10000				
O=C(Nc1ccc(-c2c[nH]c3cc(F)ccc23)cc1)[C@@H]1CCCNC1 [Example 131, (3R)—N-[4-(6-fluoro-1H-indol-3-yl)phenyl]piperidine-3-carboxamide]	≤ 500 nM and 200 to 500 nM	< 1000	> 10000	> 10000				
NS(=O)(=O)N1CCCC(NC(=O)c2ccc(-c3c[nH]c4cc(F)ccc34)cc2)C1 (stereo not shown) [Example 132, 4-(6-Fluoro-1H-indol-3-yl)-N-(1-sulfamoyl-3-piperidyl)benzamide]	≤ 500 nM and 200 to 500 nM	1000 to 5000	> 10000	> 10000				
O=C(N[C@H]1CN2CCC1CC2)c1ccc(-c2c[nH]c3cc(F)ccc23)cc1 [Example 133, 4-(6-Fluoro-1H-indol-3-yl)-N-[(3R)-quinuclidin-3-yl]benzamide]	≤ 200 nM	< 1000	> 10000	> 10000				
O=C(NCCC(F)(F)F)c1ccc(-c2c[nH]c3cc(F)ccc23)cc1 [Example 134, 4-(6-Fluoro-1H-indol-3-yl)-N-(3,3,3-trifluoropropyl)benzamide]	≤ 200 nM	1000 to 5000	> 10000	> 10000				
CN1CCN(CCCNC(=O)c2ccc(-c3c[nH]c4cc(F)ccc34)cc2)CC1 [Example 135, 4-(6-Fluoro-1H-indol-3-yl)-N-[3-(4-methylpiperazin-1-yl)propyl]benzamide]	≤ 200 nM	< 1000	> 10000	5000 to 10000				
COc1cc(-c2c[nH]c3cc(F)ccc23)ccc1C(=O)N[C@@H](C)CO [Example 136, 4-(6-Fluoro-1H-indol-3-yl)-N-[(1S)-2-hydroxy-1-methyl-ethyl]-2-methoxy-benzamide]	≤ 500 nM and 200 to 500 nM	< 1000	> 10000	> 10000				
COc1cc(-c2c[nH]c3cc(F)ccc23)ccc1C(=O)NCCCN(C)C [Example 137, N-[3-(dimethylamino)propyl]-4-(6-fluoro-1H-indol-3-yl)-2-methoxy-benzamide]	≤ 200 nM	< 1000	> 10000	> 10000				
Fc1ccc2c(/C=C/c3nn[nH]n3)c[nH]c2c1 [LM10]					did not show any signs of toxicity	reverted		
N-(2-diethylaminoethyl)-4-(6-fluoro-1H-indol-3-yl)benzamide [Example 81]							5000 to 10000	> 10000
N-(3,3-difluorocyclobutyl)-4-(6-fluoro-1H-indol-3-yl)benzamide [Example 114]							> 10000	> 10000
N-[3-(dimethylamino)propyl]-4-(6-fluoro-1H-indol-3-yl)benzamide [Example 8]							> 10000	> 10000
N-cyclopropyl-4-(6-fluoro-1H-indol-3-yl)benzamide [Example 86]							> 10000	> 10000
